How the values of the data set were obtained:
A pH 7.4 D2O solution was made by first freeze-drying a 50 mM sodium phosphate aqueous solution containing 150 mM NaCl and 20 mM EDTA at pH 7.4 and reconstituting to the same volume with deuterium oxide. Acetone was added as a standard to the buffer at 1.0 μl per 3 ml. Samples of the PEG reagents were dissolved at 1 μmol in 0.75 ml of the buffer and analysed after 4 h and after 25.5 h by 400 MHz NMR spectroscopy. The stability of the PEG maleimide samples was determined by comparing the integral at 6.86 ppm after normalising using the integral for the acetone standard at 2.17 ppm.

One substance from patent publication US9896412B2, “Reagents and method for conjugating biological molecules” (POLYTHERICS LIMITED, priority 2008, dated 2018) can be followed below.

Take “α-methoxy-ω-ethyl-maleinimide polyethylene glycol [PEG maleimide sample 2]”: the “% Degradation over 21.5 h at pH 7.4” value was determined as 19%.
